The source made the active and inactive calls. The calls are words filed in the database; no cut-off is given here.
Experiments:
THP-1 [1] = experiment: Antiproliferative activity against human THP-1 cells assessed as reduction in cell viability at 100 uM incubated for 72 hrs by MTT assay relative to control; assay type: functional
THP-1 [2] = experiment: cells; conditions: Homo sapiens, THP-1, 72 h
Description: Antiproliferative activity against human THP-1 cells assessed as inhibition of cell growth incubated for 72 hrs by MTT assay

[3] = Inhibition of Class I/IIb HDAC in human THP-1 cells preincubated for 18 hrs followed by substrate addition and measured after 3 hrs by fluorescence based microplate reader assay; assay type: cell-based
[4] = target: T1, Protein deacetylase HDAC6 (Homo sapiens, UniProt Q9UBN7); experiment: Inhibition of human recombinant HDAC6 using Boc-Lys(Ac)-AMC as substrate preincubated for 5 mins followed by substrate addition and measured after 90 mins by fluorescence based microplate reader analysis
T1 sequence (Q9UBN7 whole entry): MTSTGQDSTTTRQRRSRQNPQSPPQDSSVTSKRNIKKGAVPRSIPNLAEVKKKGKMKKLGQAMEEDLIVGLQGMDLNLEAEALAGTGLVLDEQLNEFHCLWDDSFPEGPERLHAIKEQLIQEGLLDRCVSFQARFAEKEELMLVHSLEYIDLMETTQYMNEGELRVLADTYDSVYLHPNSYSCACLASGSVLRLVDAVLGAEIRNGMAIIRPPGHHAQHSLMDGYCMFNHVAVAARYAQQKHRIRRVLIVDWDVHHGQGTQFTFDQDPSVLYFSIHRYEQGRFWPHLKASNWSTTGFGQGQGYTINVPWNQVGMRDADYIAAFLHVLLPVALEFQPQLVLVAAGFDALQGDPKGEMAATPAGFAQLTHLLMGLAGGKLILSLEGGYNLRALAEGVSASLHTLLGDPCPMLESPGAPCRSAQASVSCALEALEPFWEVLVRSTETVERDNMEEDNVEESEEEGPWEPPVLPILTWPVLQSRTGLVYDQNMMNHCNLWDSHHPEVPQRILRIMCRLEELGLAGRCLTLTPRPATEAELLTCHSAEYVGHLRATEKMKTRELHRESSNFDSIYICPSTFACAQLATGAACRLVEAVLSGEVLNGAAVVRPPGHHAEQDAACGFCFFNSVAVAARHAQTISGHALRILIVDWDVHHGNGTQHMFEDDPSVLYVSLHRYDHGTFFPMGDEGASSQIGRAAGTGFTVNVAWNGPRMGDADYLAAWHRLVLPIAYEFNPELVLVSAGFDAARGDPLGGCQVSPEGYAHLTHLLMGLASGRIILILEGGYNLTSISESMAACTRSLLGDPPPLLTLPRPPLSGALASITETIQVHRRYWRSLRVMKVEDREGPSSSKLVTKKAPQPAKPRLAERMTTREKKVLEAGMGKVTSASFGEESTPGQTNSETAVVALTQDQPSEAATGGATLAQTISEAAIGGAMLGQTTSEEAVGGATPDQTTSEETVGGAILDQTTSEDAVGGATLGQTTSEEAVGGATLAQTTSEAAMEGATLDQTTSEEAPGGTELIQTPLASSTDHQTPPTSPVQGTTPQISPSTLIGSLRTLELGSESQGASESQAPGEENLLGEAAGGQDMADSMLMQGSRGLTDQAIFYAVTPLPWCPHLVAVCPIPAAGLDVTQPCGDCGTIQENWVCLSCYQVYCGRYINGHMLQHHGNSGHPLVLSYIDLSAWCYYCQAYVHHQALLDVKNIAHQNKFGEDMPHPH

Histone deacetylase 5 = Histone deacetylase 5 (Homo sapiens, UniProt Q9UQL6); experiment: Inhibition of HDAC5 (unknown origin)
Histone deacetylase 5, sequence (Q9UQL6 whole entry): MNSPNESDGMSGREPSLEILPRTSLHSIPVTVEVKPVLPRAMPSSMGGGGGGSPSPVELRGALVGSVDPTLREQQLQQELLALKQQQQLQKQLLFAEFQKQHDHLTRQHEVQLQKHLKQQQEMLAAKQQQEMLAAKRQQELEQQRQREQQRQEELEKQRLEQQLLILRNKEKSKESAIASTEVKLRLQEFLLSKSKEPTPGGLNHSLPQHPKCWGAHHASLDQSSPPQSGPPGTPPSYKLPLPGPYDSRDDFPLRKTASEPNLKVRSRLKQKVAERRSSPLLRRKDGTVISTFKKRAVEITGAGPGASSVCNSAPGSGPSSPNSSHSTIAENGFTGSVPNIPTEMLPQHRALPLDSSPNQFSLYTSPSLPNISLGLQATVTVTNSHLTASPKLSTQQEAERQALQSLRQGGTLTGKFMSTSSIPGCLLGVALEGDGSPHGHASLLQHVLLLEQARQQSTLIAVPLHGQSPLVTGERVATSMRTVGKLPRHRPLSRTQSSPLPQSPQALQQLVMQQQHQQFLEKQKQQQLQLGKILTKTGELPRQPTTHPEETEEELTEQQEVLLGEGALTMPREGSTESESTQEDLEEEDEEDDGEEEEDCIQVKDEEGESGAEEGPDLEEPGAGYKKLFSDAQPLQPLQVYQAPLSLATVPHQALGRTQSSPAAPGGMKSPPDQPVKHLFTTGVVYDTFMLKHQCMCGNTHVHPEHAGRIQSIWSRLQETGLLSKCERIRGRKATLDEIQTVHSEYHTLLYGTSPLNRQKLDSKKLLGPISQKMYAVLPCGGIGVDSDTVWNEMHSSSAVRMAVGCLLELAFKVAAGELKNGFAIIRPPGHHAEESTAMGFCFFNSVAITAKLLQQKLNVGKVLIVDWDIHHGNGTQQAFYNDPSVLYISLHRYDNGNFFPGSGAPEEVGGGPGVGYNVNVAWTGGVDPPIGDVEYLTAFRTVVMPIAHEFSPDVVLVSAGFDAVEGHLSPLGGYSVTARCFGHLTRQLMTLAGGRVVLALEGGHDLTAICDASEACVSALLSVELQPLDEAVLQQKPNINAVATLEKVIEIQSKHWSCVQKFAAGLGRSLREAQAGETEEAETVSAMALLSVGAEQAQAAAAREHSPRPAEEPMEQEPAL

[5] = Inhibition of Class IIa/8 HDAC in human THP-1 cells preincubated for 18 hrs followed by substrate addition and measured after 3 hrs by fluorescence based microplate reader assay; assay type: cell-based
Histone deacetylase 11 = target: T2, Histone deacetylase 11 (Homo sapiens, UniProt Q96DB2); experiment: Inhibition of HDAC11 (unknown origin)
T2 sequence (Q96DB2 whole entry): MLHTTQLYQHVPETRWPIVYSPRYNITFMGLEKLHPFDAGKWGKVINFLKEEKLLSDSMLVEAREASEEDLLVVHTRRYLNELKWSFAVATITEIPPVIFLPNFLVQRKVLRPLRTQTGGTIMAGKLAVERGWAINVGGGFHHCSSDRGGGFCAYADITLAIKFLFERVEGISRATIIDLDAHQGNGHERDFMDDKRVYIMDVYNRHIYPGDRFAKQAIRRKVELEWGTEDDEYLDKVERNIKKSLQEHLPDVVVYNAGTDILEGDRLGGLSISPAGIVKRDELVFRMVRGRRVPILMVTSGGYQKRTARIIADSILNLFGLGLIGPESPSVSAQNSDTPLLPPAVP

THP-1 [6] = experiment: Inhibition of Class IIa/8 HDAC in human THP-1 cells at 100 uM preincubated for 18 hrs followed by substrate addition and measured after 3 hrs by fluorescence based microplate reader assay relative to control; assay type: cell-based; conditions: time 21.0 hrs, values are per cent of control
Histone deacetylase 3 = Histone deacetylase 3 (Homo sapiens, UniProt O15379); experiment: Inhibition of HDAC3 (unknown origin)
Histone deacetylase 3, sequence (O15379 whole entry): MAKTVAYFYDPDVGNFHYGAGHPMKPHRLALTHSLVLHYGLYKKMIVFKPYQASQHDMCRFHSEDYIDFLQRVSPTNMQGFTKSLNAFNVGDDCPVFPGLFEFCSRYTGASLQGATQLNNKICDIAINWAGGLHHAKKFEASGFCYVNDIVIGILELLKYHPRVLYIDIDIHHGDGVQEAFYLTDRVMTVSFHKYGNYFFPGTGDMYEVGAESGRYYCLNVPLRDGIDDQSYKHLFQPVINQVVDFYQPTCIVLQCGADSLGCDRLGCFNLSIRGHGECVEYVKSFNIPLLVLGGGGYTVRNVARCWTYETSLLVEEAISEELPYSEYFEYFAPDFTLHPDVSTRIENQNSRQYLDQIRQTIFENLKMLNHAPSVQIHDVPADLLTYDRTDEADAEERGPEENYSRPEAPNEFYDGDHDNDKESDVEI

Histone deacetylase 8 = target: T3, Histone deacetylase 8 (Homo sapiens, UniProt Q9BY41); experiment: Inhibition of human recombinant HDAC8 using Boc-Lys-(Tfa)-AMC as substrate preincubated for 5 mins followed by substrate addition and measured after 90 mins by fluorescence based microplate reader analysis
T3 sequence (Q9BY41 whole entry): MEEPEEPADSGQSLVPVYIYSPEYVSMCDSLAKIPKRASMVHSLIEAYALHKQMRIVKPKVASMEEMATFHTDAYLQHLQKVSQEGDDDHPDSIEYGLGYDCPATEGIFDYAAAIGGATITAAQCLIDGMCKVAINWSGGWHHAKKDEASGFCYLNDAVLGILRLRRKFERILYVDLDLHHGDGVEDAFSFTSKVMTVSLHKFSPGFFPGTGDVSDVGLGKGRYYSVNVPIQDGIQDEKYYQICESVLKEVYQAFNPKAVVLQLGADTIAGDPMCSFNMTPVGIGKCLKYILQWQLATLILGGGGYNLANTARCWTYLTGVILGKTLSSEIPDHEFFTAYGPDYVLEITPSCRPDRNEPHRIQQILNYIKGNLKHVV

Histone deacetylase 2 = Histone deacetylase 2 (Homo sapiens, UniProt Q92769); experiment: Inhibition of human recombinant HDAC2 using Boc-Lys(Ac)-AMC as substrate preincubated for 5 mins followed by substrate addition and measured after 90 mins by fluorescence based microplate reader analysis
Histone deacetylase 2, sequence (Q92769 whole entry): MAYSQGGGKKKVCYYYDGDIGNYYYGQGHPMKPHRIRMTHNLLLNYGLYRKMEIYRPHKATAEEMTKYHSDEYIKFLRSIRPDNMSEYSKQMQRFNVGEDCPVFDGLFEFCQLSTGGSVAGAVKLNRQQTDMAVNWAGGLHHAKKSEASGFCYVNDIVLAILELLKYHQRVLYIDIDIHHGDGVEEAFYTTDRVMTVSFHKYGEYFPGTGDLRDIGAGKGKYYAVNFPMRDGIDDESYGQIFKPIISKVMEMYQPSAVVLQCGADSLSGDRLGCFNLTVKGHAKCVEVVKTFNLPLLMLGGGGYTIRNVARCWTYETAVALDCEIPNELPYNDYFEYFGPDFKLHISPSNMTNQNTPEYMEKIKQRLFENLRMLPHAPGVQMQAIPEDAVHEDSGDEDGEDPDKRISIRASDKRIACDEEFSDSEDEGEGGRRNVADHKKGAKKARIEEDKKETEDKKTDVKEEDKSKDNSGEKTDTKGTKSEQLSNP

THP-1 [7] = experiment: Inhibition of Class I/IIb HDAC in human THP-1 cells at 100 uM preincubated for 18 hrs followed by substrate addition and measured after 3 hrs by fluorescence based microplate reader assay relative to control; assay type: cell-based; conditions: time 21.0 hrs
Histone deacetylase 1 = Histone deacetylase 1 (Homo sapiens, UniProt Q13547); experiment: Inhibition of HDAC1 (unknown origin)
Histone deacetylase 1, sequence (Q13547 whole entry, the tested form may be a part): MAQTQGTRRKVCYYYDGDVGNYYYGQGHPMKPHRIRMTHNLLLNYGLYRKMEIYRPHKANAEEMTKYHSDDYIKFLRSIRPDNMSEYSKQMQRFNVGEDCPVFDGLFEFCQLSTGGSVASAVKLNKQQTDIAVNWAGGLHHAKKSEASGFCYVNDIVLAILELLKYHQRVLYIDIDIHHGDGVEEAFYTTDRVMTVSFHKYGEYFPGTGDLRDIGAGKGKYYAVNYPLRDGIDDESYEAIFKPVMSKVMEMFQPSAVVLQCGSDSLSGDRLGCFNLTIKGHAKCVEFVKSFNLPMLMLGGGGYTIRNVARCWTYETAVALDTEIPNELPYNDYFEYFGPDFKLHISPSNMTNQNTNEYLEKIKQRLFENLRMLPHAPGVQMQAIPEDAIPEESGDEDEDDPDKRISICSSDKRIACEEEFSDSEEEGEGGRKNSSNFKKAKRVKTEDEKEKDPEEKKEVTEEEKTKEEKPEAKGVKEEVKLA

Histone deacetylase 4 = Histone deacetylase 4 (Homo sapiens, UniProt P56524); experiment: Inhibition of human recombinant TEV-8His-tagged HDAC4 (648 to 1057 residues) expressed in Escherichia coli (DE3) Rosetta cells using Boc-Lys-(Tfa)-AMC as substrate preincubated for 5 mins followed by substrate addition and measured after 90 mins by fluorescence based microplate reader analysis
Histone deacetylase 4, sequence (P56524 whole entry, the tested form may be a part): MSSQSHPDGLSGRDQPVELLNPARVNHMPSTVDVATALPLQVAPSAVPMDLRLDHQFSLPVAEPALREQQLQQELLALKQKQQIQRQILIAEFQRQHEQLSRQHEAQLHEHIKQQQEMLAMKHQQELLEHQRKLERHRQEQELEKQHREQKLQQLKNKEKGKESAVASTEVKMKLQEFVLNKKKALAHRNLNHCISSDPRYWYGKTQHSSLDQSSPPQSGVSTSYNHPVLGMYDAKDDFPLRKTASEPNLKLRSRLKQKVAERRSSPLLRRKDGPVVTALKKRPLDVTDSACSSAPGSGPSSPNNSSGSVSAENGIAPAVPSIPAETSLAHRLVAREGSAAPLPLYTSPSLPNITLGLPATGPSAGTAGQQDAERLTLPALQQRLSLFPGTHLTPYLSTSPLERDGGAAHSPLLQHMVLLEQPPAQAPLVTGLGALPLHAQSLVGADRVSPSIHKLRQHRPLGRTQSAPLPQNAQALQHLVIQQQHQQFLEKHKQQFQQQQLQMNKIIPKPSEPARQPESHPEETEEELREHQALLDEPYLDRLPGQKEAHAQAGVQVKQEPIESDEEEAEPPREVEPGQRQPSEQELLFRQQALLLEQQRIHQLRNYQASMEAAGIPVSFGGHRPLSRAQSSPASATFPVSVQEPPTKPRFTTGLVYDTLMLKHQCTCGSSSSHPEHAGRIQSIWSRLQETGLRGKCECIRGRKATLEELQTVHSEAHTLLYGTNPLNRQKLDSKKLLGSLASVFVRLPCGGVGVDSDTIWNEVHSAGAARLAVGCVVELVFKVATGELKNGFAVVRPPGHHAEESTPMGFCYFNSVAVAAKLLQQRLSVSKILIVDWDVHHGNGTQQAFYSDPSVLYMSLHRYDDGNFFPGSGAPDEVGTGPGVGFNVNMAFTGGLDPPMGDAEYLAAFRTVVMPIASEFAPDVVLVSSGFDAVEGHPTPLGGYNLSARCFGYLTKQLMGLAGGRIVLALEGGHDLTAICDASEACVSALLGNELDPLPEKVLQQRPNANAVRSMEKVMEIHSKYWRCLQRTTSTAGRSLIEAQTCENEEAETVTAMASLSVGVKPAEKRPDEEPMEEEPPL

THP-1 [8] = experiment: Induction of apoptosis in human THP-1 cells assessed as subG1 population at 5.7 uM incubated for 48 hrs by Propidium iodide staining based flow cytometric analysis; assay type: functional, cell-based
THP-1 [9] = experiment: Synergistic induction of apoptosis in human THP-1 cells assessed as increase in subG1 population at 5.7 uM incubated for 48 hrs in the presence of 7.9 nM bortezomib by Propidium iodide staining based flow cytometric analysis; assay type: functional, cell-based
THP-1 [10] = experiment: Induction of apoptosis in human THP-1 cells assessed as caspase3/7 activation at 5.7 uM incubated for 48 hrs by Hoechst 33342 staining based assay; assay type: functional, cell-based
THP-1 [11] = experiment: Synergistic induction of apoptosis in human THP-1 cells assessed as increase in caspase3/7 activation at 5.7 uM incubated for 48 hrs in the presence of 7.9 nM bortezomib by Hoechst 33342 staining based assay; assay type: functional, cell-based
CAL-27 [12] = experiment: Antiproliferative activity against human CAL-27 cells without HDAC4 expression assessed as inhibition of cell growth incubated for 72 hrs by MTT assay; assay type: functional, cell-based; conditions: CAL-27, 72 h
CAL-27 [13] = experiment: Antiproliferative activity against human CAL-27 cells overexpressing HDAC4 assessed as inhibition of cell growth incubated for 72 hrs by MTT assay; assay type: functional, cell-based; conditions: CAL-27, 72 h
THP-1 [14] = experiment: Induction of apoptosis in human THP-1 cells assessed as caspase3/7 activation at 5 uM incubated for 48 hrs by Hoechst 33342 staining based assay; assay type: functional, cell-based
THP-1 [15] = experiment: Induction of apoptosis in human THP-1 cells assessed as subG1 population at 5 uM incubated for 48 hrs by Propidium iodide staining based flow cytometric analysis; assay type: functional, cell-based
THP-1 [16] = experiment: Synergistic induction of apoptosis in human THP-1 cells assessed as increase in caspase3/7 activation at 5 uM incubated for 48 hrs in the presence of 7.9 nM bortezomib by Hoechst 33342 staining based assay; assay type: functional, cell-based
THP-1 [17] = experiment: Synergistic induction of apoptosis in human THP-1 cells assessed as increase in subG1 population at 5 uM incubated for 48 hrs in the presence of 7.9 nM bortezomib by Propidium iodide staining based flow cytometric analysis; assay type: functional, cell-based
THP-1 [18] = experiment: Synergistic effect on p21 protein expression in human THP-1 cells assessed as increase in p21 protein expression level at 5 uM incubated for 24 hrs in the presence of 7.9 nM bortezomib by Western blot analysis; assay type: functional, cell-based
THP-1 [19] = experiment: Effect on p21 protein expression in human THP-1 cells assessed as increase in p21 protein expression level at 5 uM incubated for 24 hrs by Western blot analysis; assay type: functional, cell-based

SMILES	Activity (THP-1 [1])	IC50 (THP-1 [2])	IC50 [3]	IC50 [4]	IC50 (Histone deacetylase 5)	IC50 [5]	IC50 (Histone deacetylase 11)	residual activity (THP-1 [6])	IC50 (Histone deacetylase 3)	IC50 (Histone deacetylase 8)	IC50 (Histone deacetylase 2)	inhibition (THP-1 [7])	IC50 (Histone deacetylase 1)	IC50 (Histone deacetylase 4)	further results
O=C(NOCCN1CCOCC1)c1ccc(-c2noc(C(F)(F)F)n2)cc1	47%	~100 µM	> 100 µM	18.1 µM	151 nM	429 nM	> 100 µM	100%	2.36 µM	7.13 µM	9.77 µM	41%	2.21 µM	141 nM	–
CN(Cc1ccccc1)C(=O)c1ccc(-c2noc(C(F)(F)F)n2)cc1	34%	> 100 µM	29.1 µM	2.03 µM	154 nM	540 nM	> 100 µM	117%	6.86 µM	> 100 µM	8.13 µM	78%	14.6 µM	25 nM	–
O=C(Nc1cnc2ccccc2c1)c1ccc(-c2noc(C(F)(F)F)n2)cc1	63%	47.3 µM	> 100 µM	> 100 µM	–	> 100000 nM	–	18%	–	> 100 µM	> 100 µM	0%	–	5540 nM	–
O=C(NCCc1c[nH]c2ccccc12)c1ccc(-c2noc(C(F)(F)F)n2)cc1	49%	~100 µM	–	> 100 µM	–	14500 nM	–	97%	–	> 100 µM	> 100 µM	64%	–	690 nM	–
Cc1[nH]c2ccccc2c1CCNCc1ccc(/C=C/C(=O)NO)cc1 [PANOBINOSTAT]	96%	0.001 µM	–	–	–	–	–	–	–	–	–	–	–	–	–
O=C(NOCCN1CCCCC1)c1ccc(-c2noc(C(F)(F)F)n2)cc1	45%	~100 µM	64.2 µM	–	268 nM	590 nM	> 100 µM	101%	15 µM	–	–	70%	20.7 µM	–	Activity (THP-1 [8]): inactive; Activity (THP-1 [9]): Active; Activity (THP-1 [10]): inactive; Activity (THP-1 [11]): Active; IC50 (CAL-27 [12]): 77.7 µM; IC50 (CAL-27 [13]): 69.8 µM
O=C(NCC1(c2nc(-c3ccccc3)cs2)CCOCC1)c1cccc(-c2noc(C(F)(F)F)n2)c1	100%	–	–	–	–	–	–	–	–	–	–	–	–	–	Activity (THP-1 [14]): inactive; Activity (THP-1 [15]): inactive; Activity (THP-1 [16]): Active; Activity (THP-1 [17]): Active; Activity (THP-1 [18]): Active; Activity (THP-1 [19]): Active

From ChEMBL document CHEMBL5537119 (Eur J Med Chem, 2024)
